Measurements published in US20230085307A1, “PYRIDAZINONE COMPOUND AND HERBICIDE” (NISSAN CHEMICAL CORPORATION, priority 2019, published 2023).

Legend:
Italian ryegrass [1] = test: Test Example 4: herbicidal effect by soil treatment (Table 19, symbol K); format: in vivo, Italian ryegrass (Lolium multiflorum); conditions: 320 g/ha
In short: (§1)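 In this soil treatment, the formulated compound reached the seeds only through the soil: seeds were buried about 1.5 cm deep in sterilized diluvial soil, then the diluted emulsion was sprayed over the surface. After three weeks at 25° C. to 30° C. in a greenhouse, effects were graded on criteria from an earlier test.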

barnyard grass [2] = test: Test Example 5: herbicidal effect by foliage application, plastic box (Table 20, symbol H); format: in vivo, barnyard grass (Echinochloa crus-galli); conditions: foliage application, 320 g/ha, 3 weeks after application
In short: (§2)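 Plants were sown into sterilized diluvial soil under about 1.5 cm cover and kept in a greenhouse at 25° C. to 30° C. Fourteen days on, foliage received an even spray of the diluted emulsion. Herbicidal or crop effect was judged three weeks afterwards.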

southern crabgrass [3] = test: Test Example 5: herbicidal effect by foliage application, plastic box (Table 20, symbol F); format: in vivo, southern crabgrass (Digitaria ciliaris); conditions: foliage application, 320 g/ha, 3 weeks after application
In short: as §2

green foxtail [4] = test: Test Example 5: herbicidal effect by foliage application, plastic box (Table 20, symbol G); format: in vivo, green foxtail (Setaria viridis); conditions: foliage application, 320 g/ha, 3 weeks after application
In short: as §2

windgrass [5] = test: Test Example 5: herbicidal effect by foliage application, plastic box (Table 20, symbol L); format: in vivo, windgrass (Apera spica-venti); conditions: foliage application, 320 g/ha, 3 weeks after application
In short: as §2

windgrass [6] = test: Test Example 4: herbicidal effect by soil treatment (Table 19, symbol L); format: in vivo, windgrass (Apera spica-venti); conditions: 320 g/ha
In short: as §1

southern crabgrass [7] = test: Test Example 4: herbicidal effect by soil treatment (Table 19, symbol F); format: in vivo, southern crabgrass (Digitaria ciliaris); conditions: 320 g/ha
In short: as §1

Chinese sprangletop = test: Test Example 3: herbicidal effect by foliage application, Wagner pot (Table 18, symbol D); format: in vivo, chinese sprangletop (Leptochloa chinensis); conditions: 320 g/ha
In short: (§3)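 Plants were sown in alluvial soil held under 0.1–0.5 cm standing water and grown 14 days in a greenhouse at 25–30 °C. An emulsifiable formulation, water-diluted to the set dose, was then sprayed onto the foliage, and effects were scored three weeks later using previously defined criteria.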

blackgrass [8] = test: Test Example 4: herbicidal effect by soil treatment (Table 19, symbol J); format: in vivo, blackgrass (Alopecurus myosuroides); conditions: 320 g/ha
In short: as §1

chickweed = test: Test Example 4: herbicidal effect by soil treatment (Table 19, symbol P); format: in vivo, common chickweed (Stellaria media); conditions: 320 g/ha
In short: as §1

wild oat [9] = test: Test Example 4: herbicidal effect by soil treatment (Table 19, symbol I); format: in vivo, wild oat (Avena fatua); conditions: 320 g/ha
In short: as §1

lambsquarters [10] = test: Test Example 4: herbicidal effect by soil treatment (Table 19, symbol O); format: in vivo, lambsquarters (Chenopodium album); conditions: 320 g/ha
In short: as §1

lambsquarters [11] = test: Test Example 5: herbicidal effect by foliage application, plastic box (Table 20, symbol O); format: in vivo, lambsquarters (Chenopodium album); conditions: foliage application, 320 g/ha, 3 weeks after application
In short: as §2

persian speedwell [12] = test: Test Example 5: herbicidal effect by foliage application, plastic box (Table 20, symbol R); format: in vivo, Persian speedwell (Veronica persica); conditions: foliage application, 320 g/ha, 3 weeks after application
In short: as §2

redroot pigweed = test: Test Example 4: herbicidal effect by soil treatment (Table 19, symbol N); format: in vivo, redroot pigweed (Amaranthus retroflexus); conditions: 320 g/ha
In short: as §1

barnyard grass [13] = test: Test Example 3: herbicidal effect by foliage application, Wagner pot (Table 18, symbol H); format: in vivo, barnyard grass (Echinochloa crus-galli); conditions: 320 g/ha
In short: as §3

barnyard grass [14] = test: Test Example 4: herbicidal effect by soil treatment (Table 19, symbol H); format: in vivo, barnyard grass (Echinochloa crus-galli); conditions: 320 g/ha
In short: as §1

Italian ryegrass [15] = test: Test Example 5: herbicidal effect by foliage application, plastic box (Table 20, symbol K); format: in vivo, Italian ryegrass (Lolium multiflorum); conditions: foliage application, 320 g/ha, 3 weeks after application
In short: as §2

velvetleaf [16] = test: Test Example 5: herbicidal effect by foliage application, plastic box (Table 20, symbol M); format: in vivo, velvetleaf (Abutilon theophrasti); conditions: foliage application, 320 g/ha, 3 weeks after application
In short: as §2

wild oat [17] = test: Test Example 5: herbicidal effect by foliage application, plastic box (Table 20, symbol I); format: in vivo, wild oat (Avena fatua); conditions: foliage application, 320 g/ha, 3 weeks after application
In short: as §2

green foxtail [18] = test: Test Example 4: herbicidal effect by soil treatment (Table 19, symbol G); format: in vivo, green foxtail (Setaria viridis); conditions: 320 g/ha
In short: as §1

velvetleaf [19] = test: Test Example 4: herbicidal effect by soil treatment (Table 19, symbol M); format: in vivo, velvetleaf (Abutilon theophrasti); conditions: 320 g/ha
In short: as §1

rice flat sedge = test: Test Example 3: herbicidal effect by foliage application, Wagner pot (Table 18, symbol E); format: in vivo, rice flat sedge (Cyperus iria); conditions: 320 g/ha
In short: as §3

blackgrass [20] = test: Test Example 5: herbicidal effect by foliage application, plastic box (Table 20, symbol J); format: in vivo, blackgrass (Alopecurus myosuroides); conditions: foliage application, 320 g/ha, 3 weeks after application
In short: as §2

persian speedwell [21] = test: Test Example 4: herbicidal effect by soil treatment (Table 19, symbol R); format: in vivo, Persian speedwell (Veronica persica); conditions: 320 g/ha
In short: as §1

## C=Cc1ccc(-c2sc3ccc(F)cc3c2-c2c(OC(=O)CCC)c(C)nn(C)c2=O)cc1 [2-019]
Italian ryegrass [1]
  herbicidal effect rating, K: Italian ryegrass: 5 (Herbicidal rate of 90% or more (almost completely withered))
Barnyard grass [2]
  effect on barnyard grass (H): 5 (Herbicidal rate of 90% or more (almost completely withered))
Southern crabgrass [3]
  effect on southern crabgrass (F): 4 (Herbicidal rate of 70% or more and less than 90%)
Green foxtail [4]
  effect on green foxtail (G): 5 (Herbicidal rate of 90% or more (almost completely withered))
Windgrass [5]
  effect on windgrass (L): 4 (Herbicidal rate of 70% or more and less than 90%)
Windgrass [6]
  herbicidal effect rating, L: windgrass: 1 (Herbicidal rate of 5% or more and less than 20%)
Southern crabgrass [7]
  herbicidal effect rating, F: southern crabgrass: 0 (Herbicidal rate of 5% or less (almost no effect))
Chinese sprangletop
  herbicidal effect on D (Chinese sprangletop), rating 0-5: 3 (Herbicidal rate of 40% or more and less than 70%)
Blackgrass [8]
  herbicidal effect rating, J: blackgrass: 0 (Herbicidal rate of 5% or less (almost no effect))
chickweed
  herbicidal effect rating, P: chickweed: 4 (Herbicidal rate of 70% or more and less than 90%)
Wild oat [9]
  herbicidal effect rating, I: wild oat: 0 (Herbicidal rate of 5% or less (almost no effect))
Lambsquarters [10]
  herbicidal effect rating, O: lambsquarters: 3 (Herbicidal rate of 40% or more and less than 70%)
Lambsquarters [11]
  effect on lambsquarters (O): 5 (Herbicidal rate of 90% or more (almost completely withered))
Persian speedwell [12]
  effect on persian speedwell (R): 5 (Herbicidal rate of 90% or more (almost completely withered))
Redroot pigweed
  herbicidal effect rating, N: redroot pigweed: 5 (Herbicidal rate of 90% or more (almost completely withered))
Barnyard grass [13]
  herbicidal effect on H (barnyard grass), rating 0-5: 5 (Herbicidal rate of 90% or more (almost completely withered))
Barnyard grass [14]
  herbicidal effect rating, H: barnyard grass: 0 (Herbicidal rate of 5% or less (almost no effect))
Italian ryegrass [15]
  effect on Italian ryegrass (K): 3 (Herbicidal rate of 40% or more and less than 70%)
Velvetleaf [16]
  effect on velvetleaf (M): 5 (Herbicidal rate of 90% or more (almost completely withered))
Wild oat [17]
  effect on wild oat (I): 4 (Herbicidal rate of 70% or more and less than 90%)
Green foxtail [18]
  herbicidal effect rating, G: green foxtail: 2 (Herbicidal rate of 20% or more and less than 40%)
Velvetleaf [19]
  herbicidal effect rating, M: velvetleaf: 0 (Herbicidal rate of 5% or less (almost no effect))
Rice flat sedge
  herbicidal effect on E (rice flat sedge), rating 0-5: 4 (Herbicidal rate of 70% or more and less than 90%)
Blackgrass [20]
  effect on blackgrass (J): 0 (Herbicidal rate of 5% or less (almost no effect))
Persian speedwell [21]
  herbicidal effect rating, R: persian speedwell: 5 (Herbicidal rate of 90% or more (almost completely withered))
